Data on one substance can be found in patent US8232267B2, “Porphyrin catalysts and methods of use thereof” (The Trustees of Princeton University, priority 2006, dated 2012).

The test is described as follows: Stopped-flow spectrophotometric analysis of kinetics of peroxynitrite decomposition. It is filed as biochemical. To be noted: 100 mM phosphate buffer pH 7.4, 25° C. The text has this:
Peroxynitrite was synthesized from hydrogen peroxide and nitrous acid using an sp250i syringe pump by modification of published procedures. See, Shimanovich, R.; Groves, J. T., Mechanisms of Peroxynitrite Decomposition Catalyzed by FeTMPS, a Bioactive Sulfonated Iron Porphyrin. Archives of Biochemistry and Biophysics 2001, 387, (2), 307-317; Saha, A.; Goldstein, S.; Cabelli, D.; Czapski, G., Determination of optimal conditions for synthesis of peroxynitrite by mixing acidified hydrogen peroxide with nitrite. Free Radical Biology & Medicine 1998, 24, (4), 653-659; and Uppu, R. M.; Squadrito, G. L.; Cueto, R.; Pryor, W. A., Selecting the most appropriate synthesis of peroxynitrite. […] Peroxynitrite concentrations were determined spectrophotometrically at 302 nm (ε302=1670 L mol^−1 cm^−1). […] In this manner, the concentration of peroxynitrite was determined to be 95 mM. […] Nitrite and nitrate anions were detected and quantified by measuring the absorbance decrease (indirect UV detection) at 310 nm. […] Concentrations of hydrogen peroxide in the peroxynitrite before and after treatment with MnO2 were measured by PeroXOquant Quantitative peroxide assay kit (Pierce Biotechnology), an assay based on the oxidation of Fe^2+ to Fe^3+ by H2O2 under acidic conditions. […]

For the substance “iron(III) chloride meso-tetrakis-2(N-(N-(2-methoxyethyl)acetamido)pyridyl porphyrin [Test porphyrin]”, the kcat is 1.4e+07 M⁻¹ s⁻¹.
